Test results published in patent publication US12606554B2, “Compounds and pharmaceutical compositions thereof for the treatment of diseases” (ONCO3R Therapeutics BV, priority 2019, dated 2026).

Legend:
[1] = test system: LPS-induced TNFα in monocytes; assay: Monocytes assay: LPS-triggered TNFα (ELISA); assay type: cell-based; conditions: Homo sapiens, Monocyte, LPS 200 ng/mL, supernatant after 4 h
Experimental: (§1) SIK inhibition inhibits TNFα and increases IL-10 release in LPS triggered monocyte-derived macrophages (MdM) and dendritic cells (MdDCs) (Clark et al. 2012; Sundberg et al. 2014; Ozanne et al. 2015). This assay evaluates illustrative compounds of the invention for their inhibition of LPS-induced TNFα and LPS triggered IL-10 secretion in monocytes.
(§2) PBMCs are isolated from human blood samples (buffycoats). The buffy coat is aseptically transferred into a 50 mL Falcon tube, and diluted ½ in PBS. Falcon tubes are filled with 20 mL Lymphoprep™, on top of which 25 mL of the buffy coat is carefully added, tubes are centrifuged for 35 min at 400 g in temperature controlled centrifuge, without brake, at 25° C. PBMCs are aspirated from the white interface layer between sample and Lymphoprep™. PBMCs are washed five times in PBS. Cells are resuspended in RPMI 1640 complete medium supplemented with 10% FBS, 1% P/S, and cell density is determined using a hematologic analyzer (Sysmex XS-500i).
(§3) PBMCs are centrifuged at 300×g for 10 min and resuspended at a density of 1.0*10^7 cells/80 μL Miltenyi buffer (PBS, pH 7.4, 1% FBS, 2 mM EDTA).
(§4) Starting from this point of the protocol all steps are performed on ice. 20 μL of CD14+ micro-beads are added per 1.0*10^7 cells, the tube is mixed and incubated for 15 min in the fridge at 4° C. Cell suspension volume is adjusted to total volume of 100 mL using Miltenyi buffer, mixed gently and subsequently centrifuged for 10 min at 300×g. Supernatant is discarded and cell pellet is resuspended in 12 mL of Miltenyi buffer.
Four LS columns are placed in the MACS Separator (magnet) from Miltenyi Biotec, and are prewet by rinsing with 3 mL of MACS buffer per column. Three mL of cell suspension is added onto the column (max 1*10^8 of labelled cells/column), and columns are subsequently washed 3 times with 3 mL of Miltenyi buffer.
The columns are removed from the magnets, and 5 mL of Miltenyi buffer are added to the column to flush out the CD14+ fraction by pushing the plunger into the column. The flushed fractions are collected in a fresh 50 mL Falcon and volume is adjusted to 30 mL using Miltenyi buffer, cells are centrifuged for 10 min at 300×g. The obtained cell pellet is resuspended in 10 mL RPMI w/o FBS, and cell density is determined using a hematologic analyser (Sysmex XS-500i). 100 000 cells are seeded in 80 μL per well of a 96-well plate in RPMI 1640 medium supplemented with 10% FBS, 1% P/S.
A compound dilution plate is made in 100% DMSO by 3-fold dilution of 10 mM stock solution. An intermediate dilution plate (10× final concentration) is made by diluting the compound dilution plate 50-fold in RPMI medium.
10 μL of the 10× final concentration compound is added to the cells and incubated for 1 h at 37° C. before addition of trigger. […]

[2] = test system: LPS-induced TNFα in monocyte-derived macrophages (MdM); assay: MdM assay: LPS-triggered TNFα (ELISA); assay type: cell-based; conditions: Homo sapiens, Macrophage, LPS 200 ng/mL, supernatant after 20 h
Experimental: as §1, with “monocyte-derived macrophages.” for “monocytes.”
as §2, §3, §4
Four LS columns are placed in the MACS Separator (magnet) from Miltenyi Biotec, and are prewet by rinsing with 3 mL of MACS buffer per column. […]
The columns are removed from the magnets, and 5 mL of Miltenyi buffer are added to the column to flush out the CD14+ fraction by pushing the plunger into the column. […] The obtained cell pellet is resuspended in 10 mL RPMI w/o FBS, and cell density is determined using a hematologic analyser (Sysmex XS-500i). […]

Row | EC50 [1] [nM] | EC50 [2] [nM] | Compound
1 | 100 to 1000 | 100 to 1000 | COc1cc(-c2cnn3cc(OCCN4CCOCC4)ccc23)cc2c1C(=O)N(CC(F)(F)F)CC2 [Cpd 1, 8-methoxy-6-[6-(2-morpholinoethoxy)pyrazolo[1,5-a]pyridin-3-yl]-2-(2,2,2-trifluoroethyl)-3,4-dihydroisoquinolin-1-one]
2 | 100 to 1000 | 100 to 1000 | COc1cc(-c2cnn3cc(OC(C)(C)CO)ccc23)cc(OC(F)F)c1C(=O)N[C@@H]1C[C@@H]1F [Cpd 2, 2-(difluoromethoxy)-N-[(1R,2S)-2-fluorocyclopropyl]-4-[6-(2-hydroxy-1,1-dimethyl-ethoxy)pyrazolo[1,5-a]pyridin-3-yl]-6-methoxy-benzamide]
3 | 100 to 1000 | 100 to 1000 | COc1cc(-c2cnn3cc(OC(C)(C)CN4CCOCC4)ccc23)cc(OC(F)F)c1C(=O)N[C@@H]1C[C@@H]1F [Cpd 3, 2-(difluoromethoxy)-4-[6-(1,1-dimethyl-2-morpholino-ethoxy)pyrazolo[1,5-a]pyridin-3-yl]-N-[(1R,2S)-2-fluorocyclopropyl]-6-methoxy-benzamide]
